Source: patent US10570213B2, “Methods of treating cancers using PD-1 axis binding antagonists and taxanes” (Genentech, Inc., priority 2013, dated 2020)

Test system: MC38 colorectal tumor
Assay: syngeneic MC38 colorectal tumor model in C57BL/6 mice
Format: in vivo
Conditions: FIG. 1 experiment
Experimental: Mice with established subcutaneous MC38 tumors of approximately 100-200 mm^3 were treated with single-dose carboplatin at 80 mg/kg by intraperitoneal (IP) injection plus paclitaxel at 10 mg/kg injected intravenously (IV), and anti-gp120 antibody or anti-PD-L1 (clone 25A1 mIgG2a.DANA) at 10 mg/kg dosed 3 times a week for 3 weeks. N=10 mice/group.
Mice with established subcutaneous MC38 tumors of approximately 100-200 mm^3 were treated with a single dose of either saline or dexamethasone at 4 mg/kg IV and 12 hours later, treated with either control anti-gp120 antibody or anti-PD-L1 (clone 25A1.mIgG2a.DANA) at 10 mg/kg IP 3 times a week for 3 weeks. N=10 mice/group.
Mice with established subcutaneous MC38 tumors of approximately 300 mm^3 were treated with anti-gp120 control antibody or anti-PD-L1 antibody (clone YW243.55.570 mIgG2a.DANA) administered by IP injection at 10 mg/kg 3 times a week for 3 weeks, plus saline or carboplatin at 75 mg/kg IP weekly for 3 weeks plus ABRAXANE® at 15 mg/kg iv weekly for 3 weeks, as indicated. N=8 mice/group.
MC38 colorectal tumor cell lines were maintained at Genentech. 7-10 week old C57BL/6 female mice (Charles River Laboratories; Hollister, Calif.) were inoculated subcutaneously in the right unilateral flank with 0.1 million MC38 cells. […]

Substance: paclitaxel+carboplatin
- mice with partial response (in words) (N=10 mice/group): no mice
- time to progression (TTP), 5× the initial tumor volume (tumors approximately 100-200 mm^3 at start, anti-PD-L1 clone 25A1): 15.5 days
